Tests used:
[1] = tested on: ApoE; experiment: astrocyte screening assay: secreted ApoE in rat type 1 astrocyte cultures; format: cell-based; settings: for levels of extracellular (secreted) ApoE: astrocyte screening assay
Text: Other culture systems which may be used include human culture systems of primary cells derived from human tissue or immortalized cell lines of nerve tissue origin such as the human astrocyte cell line, AsCH-7 (Bobryshev et al., 1995). In addition, novel cell lines from patients with various apoE genotypes may be used, as well as cell lines from patients suffering or predisposed to suffer from any of the neurodegenerative diseases described herein. Adult spinal cord from post-mortem patients with any of the above diseases may be used as a source for deriving cell lines of nerve tissue origin. One method of immortalizing cells from these patients is to infect primary tissue with a replication-deficient retrovirus containing DNA sequences encoding the SV40 large T antigen (Whittemore et al., 1994). Another method is to derive immortal human-human hybrid cell lines that express phenotypic characteristics of primary oligodendrocytes or astrocytes by fuising a 6-thioguanine-resistant mutant of the human rhabdomyosarcoma RD cell line with adult human nerve tissue by a lectin-enhanced polyethylene glycol procedure (McLaurin et al., 1995). Other methods for immortalizing cells derived from primary human nerve tissue could include the use of chemical carcinogens or radiation. […] Antibodies to ApoE allow for the design of a high throughput assay using an immunoassay detection method.
(§1) To verify this working hypothesis, we have examined the effect of various concentration of tacrine on ApoE synthesis and secretion in brain cells in culture. FIG. 5 illustrates the effect of tacrine on ApoE secretion in rat type 1 astrocyte cultures exposed (for 8 hours) to physiological and pharmacological concentrations of the drug. […] Experimental methods used to monitor ApoE levels are described in Bertrand et al., Mol. Brain Res. 33:174-178 (1995).

[2] = tested on: Alzheimer's disease; settings: Alzheimer's patients treated for very long periods; cited from earlier work
[3] = tested on: ApoE; settings: AD subjects treated with tacrine for several months, N = 4; untreated Alzheimer 0.36
Experimental: as §1

| Compound | levels of extracellular (secreted) ApoE [1] | ApoE secretion in astrocytes ([1]; rat type 1 astrocyte cultures exposed for 8 hours, 2 uM, concentration typically found in CSF of treated AD patients) | delay of institutionalization [2] | ApoE Concentration In the Cerebrospinal Fluid (CSF), Mean [3] |
| --- | --- | --- | --- | --- |
| CCCCCCCNC(=O)Oc1ccc2c(c1)[C@]1(C)CCN(C)[C@@H]1N2C [heptylphysostigmine] | increase | – | – | – |
| COc1cc2c(cc1OC)C(=O)C(CC1CCN(Cc3ccccc3)CC1)C2 (stereo not drawn) [donepezil] | no effect | – | – | – |
| Nc1c2c(nc3ccccc13)CCCC2 [tacrine] | increase | increases | more than 1.5 years | 0.41 mg/dL |

From patent US20010051602A1, “Methods for increasing ApoE levels for the treatment of neurodegenerative disease” (priority 1997, published 2001)
